The assay deals with HCC 1806 cells. Briefly: Cell proliferation inhibitory effect on human breast cancer cell line (crystal violet, 72 hours). It is filed as cell-based. The settings on record: read-out: Cell growth suppression IC50. The protocol:
Human derived breast cancer cell line HCC 1806 cells were daily passaged at a cell density not exceeding 80% in ATCC recommended Roswell Park Memorial Institute medium (RPMI-1640) containing 10% fetal bovine serum (FBS). In order to start the test of cell proliferation inhibitory activity, HCC 1806 cells were suspended in the above medium, after seeing at 180 μl in each well of a 96-well flat bottom plate so that the number of cells per well was 2,000, the cells were cultured at 37° C. for 1 day in an incubator containing 5% carbon dioxide gas. On the next day, the test compound was dissolved in DMSO, and 20 μl of a drug additive solution diluted serially with distilled water to 10 times of the final concentration was added to each well of the culture plate of the cells, and the cells were cultured at 37° C. for 72 hours in an incubator containing 5% carbon dioxide gas. […] 100 μL of an extract solution (0.1 N NaH2PO4: 100% ethanol=1:1) was added to each well and mixed, and the mixture was measured at a wavelength of 540 nm using a plate reader (MTP-450 manufactured by Corona Electric Co., Ltd.). […]
T: Absorbance of well to which test compound was added
C: Absorbance of wells to which no test compound was added
B: Absorbance of wells to which no cell suspension was added

The IC50 is the point on the concentration scale where inhibition reaches its midpoint. As for `Cc1ccc(F)c([C@@H](C)[C@H](NS(=O)(=O)c2ccc(C(F)(F)F)c3c2OCCC3(C)O)c2n[nH]c(=O)o2)c1C` (single isomer, unassigned) [Example 225A], the IC50 turned out to be 600 nM.

The record behind these values is patent US11634395B2, “Sulfonamide compound or salt thereof” (Taiho Pharmaceutical Co., Ltd., priority 2016, dated 2023).
